As usually defined, the IC50 is the midpoint of a concentration-inhibition curve.

Structures are written as SMILES. Some results are limits rather than exact numbers.

Data set [1] concerns the target T1, CK1γ1 (Homo sapiens, UniProt Q9HCP0). The experiment in a line: CK1γ1 NanoBRET assay with tracer 23, intact cells. The format is cell-based. The settings on record: intact HEK293 cells, N = 1.
Data set [2] deals with T2, CK1γ2 (Homo sapiens, UniProt P78368). The data set is described as follows: Eurofins radiometric enzymatic assay CK1γ2. The format is biochemical.
T2 sequence (P78368 whole entry): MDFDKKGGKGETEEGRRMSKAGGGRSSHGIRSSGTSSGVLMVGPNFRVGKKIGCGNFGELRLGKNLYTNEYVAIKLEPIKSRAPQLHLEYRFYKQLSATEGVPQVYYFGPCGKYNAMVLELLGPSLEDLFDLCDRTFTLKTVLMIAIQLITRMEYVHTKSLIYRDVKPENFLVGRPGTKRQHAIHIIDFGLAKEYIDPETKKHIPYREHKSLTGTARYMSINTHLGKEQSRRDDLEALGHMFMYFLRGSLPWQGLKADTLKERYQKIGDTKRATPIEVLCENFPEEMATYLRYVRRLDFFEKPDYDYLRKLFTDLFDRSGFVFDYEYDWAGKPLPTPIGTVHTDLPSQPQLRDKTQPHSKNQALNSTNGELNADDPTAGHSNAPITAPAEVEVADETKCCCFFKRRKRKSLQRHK
For data set [3], the target named is T1, CK1γ1. The experiment in a line: Eurofins radiometric enzymatic assay CK1γ1. The format is biochemical.
Data set [4] has as its target T2, CK1γ2. The data set is described as follows: CK1γ2 NanoBRET assay with tracer 23, intact cells. The format is cell-based. To be noted: intact HEK293 cells, N = 1. For orientation: Bioluminescence resonance energy transfer reports proximity on the nanometre scale.
For data set [5], the target named is T3, CK1γ3 (Homo sapiens, UniProt Q9Y6M4). The experiment in a line: Eurofins radiometric enzymatic assay CK1γ3. The format is biochemical. To be noted: read-out: enzymatic IC50 CK1γ3, ATP at Km, N = 1.
Target sequence in this assay (Q9Y6M4 33-362): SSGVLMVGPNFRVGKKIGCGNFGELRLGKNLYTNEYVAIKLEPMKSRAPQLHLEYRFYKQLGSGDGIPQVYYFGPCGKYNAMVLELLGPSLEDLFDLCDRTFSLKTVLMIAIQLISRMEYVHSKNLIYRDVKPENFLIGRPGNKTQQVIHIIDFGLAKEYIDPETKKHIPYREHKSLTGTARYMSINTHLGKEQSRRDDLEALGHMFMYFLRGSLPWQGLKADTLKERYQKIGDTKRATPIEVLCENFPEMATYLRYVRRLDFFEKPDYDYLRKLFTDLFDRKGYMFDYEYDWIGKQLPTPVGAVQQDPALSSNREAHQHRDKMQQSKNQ
In data set [6] the target is T3, CK1γ3. The experiment in a line: CK1γ3 NanoBRET assay with tracer 23, intact cells. The format is cell-based. The settings on record: intact HEK293 cells, N = 1.
Target sequence in this assay (Q9Y6M4 whole entry): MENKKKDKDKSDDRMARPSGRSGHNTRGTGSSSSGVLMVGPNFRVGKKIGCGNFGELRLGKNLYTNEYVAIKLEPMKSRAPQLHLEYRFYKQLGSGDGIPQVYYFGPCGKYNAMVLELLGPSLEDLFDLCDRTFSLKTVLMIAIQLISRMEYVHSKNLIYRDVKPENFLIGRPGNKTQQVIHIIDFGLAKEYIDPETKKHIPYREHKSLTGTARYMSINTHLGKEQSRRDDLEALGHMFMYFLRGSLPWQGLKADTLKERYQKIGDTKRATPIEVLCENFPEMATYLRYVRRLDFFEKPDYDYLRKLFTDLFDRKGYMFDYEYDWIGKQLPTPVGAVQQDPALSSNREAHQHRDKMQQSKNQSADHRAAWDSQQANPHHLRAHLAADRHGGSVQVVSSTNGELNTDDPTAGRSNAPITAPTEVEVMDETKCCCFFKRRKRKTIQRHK
Data set [7] relates to LRP6 phosphorylation at T1479. The experiment in a line: Western blot of LRP6 phosphorylation in HEK293 cells. The format is cell-based, human. The settings on record: 5 μM, WNT3A and R-Spondin-1, 2 h. On the technique in general: A western blot detects proteins with antibodies after separation by electrophoresis.
A further data set deals with T4, MOK (Homo sapiens, UniProt Q9UQ07).
T4 sequence (Q9UQ07 1-419): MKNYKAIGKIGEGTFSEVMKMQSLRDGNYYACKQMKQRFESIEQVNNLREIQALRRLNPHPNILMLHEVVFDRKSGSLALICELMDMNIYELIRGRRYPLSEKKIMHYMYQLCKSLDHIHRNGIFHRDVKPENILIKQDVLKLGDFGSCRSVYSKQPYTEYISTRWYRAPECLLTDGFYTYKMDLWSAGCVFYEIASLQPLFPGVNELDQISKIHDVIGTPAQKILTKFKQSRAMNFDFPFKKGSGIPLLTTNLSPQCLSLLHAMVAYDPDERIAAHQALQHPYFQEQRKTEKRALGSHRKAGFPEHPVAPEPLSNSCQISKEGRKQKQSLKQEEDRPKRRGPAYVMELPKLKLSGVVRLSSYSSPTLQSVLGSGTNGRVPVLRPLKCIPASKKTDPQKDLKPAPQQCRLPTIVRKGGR
The experiment in a line: MOK NanoBRET assay. The format is cell-based.

The nature of the next data set: Dynamic light scattering. The format is physicochemical. The settings on record: HBS buffer, 2% DMSO, 25 °C.
Data set [8] concerns the target panel of 192 kinases (Homo sapiens, UniProt P78368). The data set is described as follows: K192 NanoBRET kinase selectivity panel. The format is cell-based. The settings on record: read-out: %Fractional Occupancy.
Another data set concerns HEK293 cells. The experiment in a line: CellTiter-Glo HEK293 cell viability assay. The format is cell-based, human. To be noted: 10 μM for 24 or 48 h.
The target of the next data set is CLK4 (Homo sapiens, UniProt Q9HAZ1). The data set is described as follows: CLK4 NanoBRET assay.
CLK4, sequence (Q9HAZ1 whole entry): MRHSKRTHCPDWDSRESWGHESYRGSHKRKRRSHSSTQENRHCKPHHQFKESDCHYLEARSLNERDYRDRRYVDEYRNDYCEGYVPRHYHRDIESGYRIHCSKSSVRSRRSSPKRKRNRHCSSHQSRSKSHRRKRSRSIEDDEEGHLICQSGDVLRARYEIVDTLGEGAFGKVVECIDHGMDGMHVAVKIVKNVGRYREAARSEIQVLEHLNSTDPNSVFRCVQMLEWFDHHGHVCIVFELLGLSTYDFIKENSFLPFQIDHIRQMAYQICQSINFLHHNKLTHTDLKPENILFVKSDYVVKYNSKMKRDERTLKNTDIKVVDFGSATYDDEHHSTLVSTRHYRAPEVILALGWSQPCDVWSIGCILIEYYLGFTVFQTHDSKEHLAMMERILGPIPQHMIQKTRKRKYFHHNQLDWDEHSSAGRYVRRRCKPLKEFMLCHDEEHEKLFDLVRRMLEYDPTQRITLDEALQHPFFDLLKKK
The target in data set [9] is panel of 192 kinases (Homo sapiens, UniProt Q9HAZ1). The experiment in a line: K192 NanoBRET kinase selectivity panel. The format is cell-based. To be noted: read-out: %Fractional Occupancy.
panel of 192 kinases (Homo sapiens, UniProt Q9HAZ1), sequence (Q9HAZ1 whole entry): as above
[10] abbreviates: read-out: NB IC50 CK1γ3, tracer 23.
Setting [11] is: read-out: NB IC50 CK1γ1, tracer 23.
Where [12] appears, read: read-out: NB IC50 CK1γ2, tracer 23.

T1 sequence (Q9HCP0 whole entry): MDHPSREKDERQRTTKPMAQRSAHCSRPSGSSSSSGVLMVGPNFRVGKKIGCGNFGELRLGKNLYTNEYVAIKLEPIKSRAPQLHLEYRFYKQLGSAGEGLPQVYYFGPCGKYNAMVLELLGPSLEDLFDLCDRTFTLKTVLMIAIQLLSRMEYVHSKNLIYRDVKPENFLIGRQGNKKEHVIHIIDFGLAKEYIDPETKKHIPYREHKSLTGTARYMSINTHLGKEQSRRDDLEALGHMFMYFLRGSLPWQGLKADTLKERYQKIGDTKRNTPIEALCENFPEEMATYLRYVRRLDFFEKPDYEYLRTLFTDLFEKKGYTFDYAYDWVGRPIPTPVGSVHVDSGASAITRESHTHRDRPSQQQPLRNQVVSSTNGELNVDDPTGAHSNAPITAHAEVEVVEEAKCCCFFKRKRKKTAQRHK
panel of 192 kinases (Homo sapiens, UniProt P78368), sequence (P78368 whole entry): as the sequence (P78368 whole entry) above

In the case of `N#Cc1ccc2nc(Nc3ccc(N4CCOCC4)cc3)[nH]c2c1` [Compound 4, 2-((4-morpholinophenyl)amino)-1H-benzo[d]imidazole-6-carbonitrile], the IC50 at CK1γ1 [1] (NB IC50 CK1γ1, tracer 23) was 910 nM; on CK1γ2 [2] it was 81 nM; against CK1γ1 [3], 430 nM; at CK1γ2 [4] (NB IC50 CK1γ2, tracer 23), 920 nM; at CK1γ3 [5], 1300 nM.

In the case of `COc1cc(N2CCOCC2)ccc1Nc1nc2ccc(C#N)cc2[nH]1` [Compound 5, 2-((2-Methoxy-4-morpholinophenyl)amino)-1H-benzo[d]imidazole-6-carbonitrile], the IC50 against CK1γ3 [6] (NB IC50 CK1γ3, tracer 23) was more than 30000 nM; against CK1γ1 [1] (NB IC50 CK1γ1, tracer 23) it was more than 30000 nM; against CK1γ2 [2], 4170 nM; against CK1γ1 [3] it was 5520 nM; against CK1γ2 [4] (NB IC50 CK1γ2, tracer 23) it was more than 30000 nM; on CK1γ3 [5], 2750 nM. In addition, the “LRP6 phosphorylation at T1479” value in data set [7] is “did not occur”.

With `N#Cc1ccc2nc(Nc3ccc(N4CCOCC4)c(F)c3)[nH]c2c1` [Compound 9, 2-((3-Fluoro-4-morpholinophenyl)amino)-1H-benzo[d]imidazole-6-carbonitrile], the IC50 was determined as 980 nM at CK1γ1 [1] (NB IC50 CK1γ1, tracer 23); 34 nM on CK1γ2 [2]; 212 nM against CK1γ1 [3]; 770 nM at CK1γ2 [4] (NB IC50 CK1γ2, tracer 23); 656 nM at CK1γ3 [5].

Take `N#Cc1ccc2nc(Nc3ccc(N4CCOCC4)c(C(F)(F)F)c3)[nH]c2c1` [Compound 10, 2-((4-Morpholino-3-(trifluoromethyl)phenyl)amino)-1H-benzo[d]imidazole-6-carbonitrile]: the concentration for half-maximal inhibition (IC50) amounted to 1350 nM against CK1γ3 [6] (NB IC50 CK1γ3, tracer 23); 1400 nM on CK1γ1 [1] (NB IC50 CK1γ1, tracer 23); 34 nM on CK1γ2 [2]; 120 nM against CK1γ1 [3]; 780 nM on CK1γ2 [4] (NB IC50 CK1γ2, tracer 23).

Consider `N#Cc1ccc2nc(Nc3cc(F)c(N4CCOCC4)c(F)c3)[nH]c2c1` [Compound 11, 2-((3,5-Difluoro-4-morpholinophenyl)amino)-1H-benzo[d]imidazole-6-carbonitrile], for which the IC50 stood at 3300 nM against CK1γ3 [6] (NB IC50 CK1γ3, tracer 23); 920 nM at CK1γ1 [1] (NB IC50 CK1γ1, tracer 23); 25 nM against CK1γ2 [2]; 121 nM at CK1γ1 [3]; 976 nM at CK1γ3 [5].

As to `N#Cc1ccc2nc(Nc3ccc(N4CCOCC4)c(Cl)c3)[nH]c2c1` [Compound 14, 2-((3-Chloro-4-morpholinophenyl)amino)-1H-benzo[d]imidazole-6-carbonitrile], the half-maximal inhibitory concentration (IC50) on MOK was more than 5000 nM; on CK1γ1 [1] (NB IC50 CK1γ1, tracer 23) it was 180 nM; against CK1γ2 [4] (NB IC50 CK1γ2, tracer 23), 180 nM; on CK1γ3 [5], 958 nM. Moreover, the “aqueous solubility in DLS” value in “Dynamic light scattering” is recorded as “good aqueous solubility”. Besides, the receptor occupancy at 1 µM at panel of 192 kinases [8] stood at 74%. In the data set on HEK293 cells, the “HEK293 cell viability (CellTiter-Glo)” value is recorded as “did not impact cell viability”.

As for `N#Cc1ccc2nc(Nc3ccc(N4CCOCC4)c(Br)c3)[nH]c2c1` [Compound 15, 2-((3-Bromo-4-morpholinophenyl)amino)-1H-benzo[d]imidazole-6-carbonitrile], the IC50 on CK1γ3 [6] (NB IC50 CK1γ3, tracer 23) amounted to 110 nM; on CK1γ1 [1] (NB IC50 CK1γ1, tracer 23) it was 580 nM; on CK1γ2 [4] (NB IC50 CK1γ2, tracer 23), 110 nM; on CK1γ3 [5] it was 700 nM.

Take `N#Cc1ccc2[nH]c(Nc3ccc(N4CCCCC4)c(Cl)c3)nc2c1` [Compound 20, 2-((3-Chloro-4-(piperidin-1-yl)phenyl)amino)-1H-benzo[d]imidazole-5-carbonitrile]: the IC50 against CK1γ3 [6] (NB IC50 CK1γ3, tracer 23) was determined as 300 nM; at CK1γ1 [1] (NB IC50 CK1γ1, tracer 23), 380 nM; against CK1γ2 [4] (NB IC50 CK1γ2, tracer 23), 250 nM; on CK1γ3 [5], 475 nM.

With `CN1CCN(c2ccc(Nc3nc4ccc(C#N)cc4[nH]3)cc2Cl)CC1` [Compound 21, 2-((3-Chloro-4-(4-methylpiperazin-1-yl)phenyl)amino)-1H-benzo[d]imidazole-6-carbonitrile], the IC50 against CK1γ3 [6] (NB IC50 CK1γ3, tracer 23) is 180 nM; against CLK4, 570 nM; against CK1γ1 [1] (NB IC50 CK1γ1, tracer 23) it was 170 nM; at CK1γ2 [4] (NB IC50 CK1γ2, tracer 23), 220 nM; on CK1γ3 [5], 431 nM. Besides, on panel of 192 kinases [9], the receptor occupancy at 1 µM amounted to 49%.

As for `Cc1ccc2nc(NC(=O)CSc3nc4c(c(=O)n3-c3ccc(F)cc3)SCC4)sc2c1` [IWP-3, reference compound], the IC50 on CK1γ3 [6] (setting [10]), on CK1γ1 [1] (setting [11]) and on CK1γ2 [4] (setting [12]) was more than 30000 nM in each case.

`Nc1nccc(-c2c(-c3ccc(F)cc3)ncn2C2CCCCC2)n1` [PF-670462, reference compound]: the IC50 on CK1γ3 [6] (setting [10]), on CK1γ1 [1] (setting [11]) and at CK1γ2 [4] (setting [12]) was more than 30000 nM throughout.

Values taken from paper PMC12910644 (Journal of Medicinal Chemistry, 2026).
